Experimental data published in PubChem BioAssay AID743403 (Broad Institute, 2014).
Several values for one entry are separate records, joined by “and”; a condition that tells them apart may be missing. Equal entries are not always repeated. Activity calls are given as the source filed them. The rule behind the calls is not given here.

What was measured:
[1] = system: Cryptococcus neoformans cell lysis, plate reader; assay: fungal cell lysis by compounds – dry powder, set 2, dose response (AID 743403)
[2] = as above; details: Cryptococcus neoformans cell lysis, plate reader; at 35 µM (top of the series)

Cc1cc2ncn(CCOc3ccc4c(c3)CCC4)c2cc1C
AC50 [1]: 5.59 µM

Cc1ccc(C(C)C)c(OCCn2c(CO)nc3ccccc32)c1
activity change, negative = active [2]: -20.4% (inactive)

Cc1cc2ncn(CCOc3ccccc3C)c2cc1C
AC50 [1]: 19.8 µM

Cc1ccc(C(C)C)c(OCCn2c(=S)[nH]c3ccccc32)c1
AC50 [1]: 4.95 µM

S=c1[nH]c2cc(Cl)ccc2n1CCOc1ccccc1
activity change, negative = active [2]: 27% (inactive)

CC(C)(C)c1ccc(OCCn2cnc3ccccc32)c(Cl)c1
AC50 [1]: 20.8 µM

S=c1[nH]c2cccc(Cl)c2n1CCOc1ccccc1
AC50 [1]: 8.43 µM

CSc1nc2ccccc2n1CCOc1cc(C)ccc1C(C)C
activity change, negative = active [2]: -4.35% (inactive)

Cc1cc2ncn(CCOc3ccccc3)c2cc1C
AC50 [1]: 25 µM

COCc1nc2ccccc2n1CCOc1ccc(C(C)(C)C)cc1
activity change, negative = active [2]: 5.6% (inactive)

Cc1ccc(C(C)C)c(OCCn2c(NC#N)nc3ccccc32)c1
activity change, negative = active [2]: -9.31% (inactive)

CC(C)c1ccccc1NCCn1c(=S)[nH]c2ccccc21
activity change, negative = active [2]: 0.673% (inactive)

COc1ccc(OCCn2cnc3ccccc32)cc1
activity change, negative = active [2]: -22.1% (inactive)

CC(C)c1ccccc1OCCn1c(=S)[nH]c2ccccc21
AC50 [1]: 11.9 µM

Fc1cccc2c1[nH]c(=S)n2CCOc1ccccc1
AC50 [1]: 26.2 µM

c1ccc2c(c1)ncn2CCOc1ccc2c(c1)CCC2
AC50 [1]: 3.76 µM

CC(C)Oc1cccc(OCCn2cnc3ccccc32)c1
AC50 [1]: 29 µM

c1ccc(-c2ccc(OCCn3cnc4ccccc43)cc2)cc1
activity change, negative = active [2]: -12.5% (inactive)

CCCCc1nc2ccccc2n1CCOc1ccccc1
activity change, negative = active [2]: 0.005% (inactive)

Cc1ccc(OCCn2cnc3cc(C)c(C)cc32)cc1
AC50 [1]: 15.9 µM

CCCc1nc2ccccc2n1CCOc1ccccc1
activity change, negative = active [2]: 0.352% (inactive)

O=S(=O)(c1ccc(OCCn2cnc3ccccc32)cc1)N1CCOCC1
activity change, negative = active [2]: -21.8% (inactive)

Cc1cccc(OCCn2c(=S)[nH]c3cc(F)ccc32)c1
AC50 [1]: 14.8 µM and 15.5 µM

CC(C)(C)c1ccc(OCCn2cnc3ccccc32)cc1
AC50 [1]: 30.5 µM

Cc1cccc(OCCn2c(=S)[nH]c3ccccc32)c1
AC50 [1]: 19.5 µM

CCSc1nc2ccccc2n1CCOc1ccccc1
activity change, negative = active [2]: -22.6% (inactive)

NCC(=O)Nc1ccc(-n2nc(C(F)(F)F)cc2-c2ccc3c(ccc4ccccc43)c2)cc1
AC50 [1]: 10.9 µM

Fc1ccc(OCCn2c(=S)[nH]c3ccccc32)cc1
activity change, negative = active [2]: -33.3% (inactive)

Cc1cccc(OCCn2c(=S)[nH]c3c(F)cccc32)c1
activity change, negative = active [2]: 1.05% (inactive)

CS(=O)(=O)c1ccc(OCCn2cnc3ccccc32)cc1
activity change, negative = active [2]: -15.6% (inactive)

COc1ccccc1OCCn1c(=S)[nH]c2ccccc21
activity change, negative = active [2]: 3.55% (inactive)

CCc1nc2ccccc2n1CCOc1ccccc1
activity change, negative = active [2]: 5.25% (inactive)

Cc1ccc(C(C)C)c(OCCn2c(N)nc3ccccc32)c1
activity change, negative = active [2]: 69.2% (inactive)

Clc1ccc(OCCn2cnc3ccccc32)cc1
AC50 [1]: 32.5 µM

Clc1ccccc1OCCn1cnc2ccccc21
AC50 [1]: 36.3 µM

OCc1nc2ccccc2n1CCOc1ccccc1
activity change, negative = active [2]: -9.32% (inactive)

Clc1ccc(OCCn2cnc3ccccc32)c(Cl)c1
AC50 [1]: 7.76 µM

COc1ccccc1OCCn1c(SC)nc2ccccc21
AC50 [1]: > 70 µM (inactive)

Cc1ccc2c(c1)[nH]c(=S)n2CCOc1ccccc1
AC50 [1]: 17.4 µM

Cc1cccc(OCCn2c(=S)[nH]c3ccc(C(F)(F)F)cc32)c1
activity change, negative = active [2]: 4.5% (inactive)

FC(F)(F)c1cccc(OCCn2cnc3ccccc32)c1
AC50 [1]: > 70 µM (inactive)

Cc1ccc(OCCn2cnc3ccccc32)c(C)c1
AC50 [1]: 7.4 µM

CC(C)Oc1ccc(OCCn2c(=S)[nH]c3ccccc32)cc1
AC50 [1]: 29.7 µM

Fc1ccc2c(c1)[nH]c(=S)n2CCOc1ccccc1
AC50 [1]: 23.2 µM and 28.7 µM

CSc1nc2ccccc2n1CCOc1ccc(C)cc1
AC50 [1]: > 70 µM (inactive)

Cc1ccc(C(C)C)c(OCCn2c(=O)[nH]c3ccccc32)c1
activity change, negative = active [2]: -16.7% (inactive)
